In US8722343B2, “Methods and compositions for the diagnosis and treatment of diabetes” (priority 2008, dated 2014):

Tests used:
αTC1 cells = experiment: Na-dependent [3H]-D-aspartate uptake in αTC1 cells; format: cell-based, mouse; details: DHK in uptake solution
Experimental: (§1) 2D: 3H-D-Aspartate uptake. Four days after plating the Na-dependent (NaCl) and Na-independent (ChCl) [3H]-D-Aspartate uptake was measured in αTC1 and βTC3 cells. Data are expressed as cpm/well/10 min and represent the mean±SE of at least three independent experiments performed in triplicate. * (NaCl vs ChCl) P<0.001; ° (DHK versus control) P<0.001.
(§2) 150.000 cells/well were plated in a 24-wells plate, and grown until confluence. After two washes in sodium-free solution (150 mM ChCl, 2 mM KCl, 1 mM CaCl2, 1 mM MgCl2, 10 mM Hepes pH 7.5), cells were incubated for 10 minutes in 200 μl of Na^+-dependent (150 mM NaCl 2 mM KCl, 1 mM CaCl2, 1 mM MgCl2, 10 mM Hepes pH 7.5) or Na^+-independent (sodium-free solution) uptake solution containing 5 μCi/ml of [^3H]D-Aspartic acid (specific activity 37 Ci/mmol; Amersham Biosciences). The amino acid uptake was stopped by washing the cells twice in ice-cold sodium-free solution. Cells were dissolved in 150 μl of SDS 1% for liquid scintillation counting. For transport inhibition, DHK was added to the uptake solution at the indicated concentrations.

human isolated islets = format: cell-based; details: 16.7 mM glucose; DHK (0.3 mM) or L-glutamate (0.5 mM) alone
Experimental: FIG. 5: GLT1 CONTROLS HORMONE SECRETION IN HUMAN ISOLATED ISLETS. 48 hours after isolation, 20 human islets per tube were exposed to 3.3 or 16.7 mM glucose in the absence and the presence of either L-glutamate (0.5 mM), DHK (0.3 mM) or both L-glutamate and DHK, and insulin secretion measured. Levels of secreted insulin from islets were normalized to total insulin content. Data are expressed as % of insulin content and represent the mean±SD of two independent experiments performer in duplicate.
Insulin content and secretion were assessed on 20 islets, using a Micro-particle Enzyme Immunoassay (MEIA insulin, IMX System, Abbott Laboratories, Abbott Park, Ill., USA). Insulin secretion in response to increasing glucose concentrations, glutamate or DHK treatment was assessed by static incubation as previously described (Federici et al, 2000). Briefly, batches of 20 islets were pre-incubated in 1 ml of Krebs-Ringer buffer (KRB) supplemented with 3, 3 or 16.7 mM glucose for 30 min. Then the supernatants were replaced with Kreb's buffer containing 3, 3 or 16.7 mM glucose plus glutamate or the specific GLT1 inhibitor DHK (Sigma, St Louis, Mo., USA), as indicated. After a 30-min incubation at 37° C., the medium was removed and frozen for immunoassays. At the end of incubation, islets were lysed in lyses buffer and the total insulin content determined by immunoassay. […]

GLT1 = biological target: T1, GLT1 (Mus musculus, UniProt P43006); experiment: Na-dependent [3H]-D-aspartate uptake in βTC3 cells; format: cell-based
T1 construct: Since GLT1 is endogenously expressed in beta-TC3; endogenous in cells; host or cells: βTC3 mouse pancreatic beta-cell line
Experimental: as §1
3×10^5 βTC3 cells/well were plated onto 24-well culture plates and the Na-dependent [3H]-D-Aspartate uptake was measured in the presence or the absence of increasing DHK concentrations (0.05-0.3 mM). Data are expressed as cpm/well/10 min and represent the mean±SE of at least three independent experiments performer in triplicate. * (DHK versus controls) P<0.001.
as §2, with “For transport inhibition, DHK was added to the uptake solution at the indicated concentrations.” left out

T1 sequence (P43006 1-569 isoform P43006-2): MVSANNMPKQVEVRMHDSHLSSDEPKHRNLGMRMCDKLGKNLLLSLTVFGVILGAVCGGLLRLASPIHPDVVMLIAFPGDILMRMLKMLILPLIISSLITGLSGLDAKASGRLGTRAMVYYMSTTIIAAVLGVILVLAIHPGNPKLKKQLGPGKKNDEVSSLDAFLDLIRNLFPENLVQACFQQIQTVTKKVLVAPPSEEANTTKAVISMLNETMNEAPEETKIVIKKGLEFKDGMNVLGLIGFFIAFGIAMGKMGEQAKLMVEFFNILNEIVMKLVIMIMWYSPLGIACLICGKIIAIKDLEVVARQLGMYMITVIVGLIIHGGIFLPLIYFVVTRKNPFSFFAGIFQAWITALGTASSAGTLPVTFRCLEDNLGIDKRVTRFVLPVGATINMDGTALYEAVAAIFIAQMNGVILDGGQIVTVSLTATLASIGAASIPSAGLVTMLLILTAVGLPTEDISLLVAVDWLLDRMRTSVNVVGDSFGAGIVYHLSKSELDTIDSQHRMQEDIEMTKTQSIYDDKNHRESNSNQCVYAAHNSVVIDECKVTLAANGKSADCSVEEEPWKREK

With `CC(C)[C@H]1CN[C@H](C(=O)O)[C@H]1CC(=O)O` [DHK, Dihydrokainic Acid] as the compound, how does the “Na-dependent D-aspartate uptake” value (αTC1 cells) read?
The value was “not inhibited”.

And the “effect on insulin secretion” value (human isolated islets)?
Its value is “No effect”.

And the Na-dependent aspartate uptake (GLT1; 1 mM DHK)?
The Na-dependent aspartate uptake was “completely inhibited”.

And the IC50 (GLT1; DHK 0.05-0.3 mM, read-out: IC50, inhibition of Na-dependent D-aspartate uptake)?
The IC50 was 50 µM.
